Experiments:
Format in all cases: cell-based, human
EKVX [1] = assay: NCI-60 five-dose assay (non-small cell lung cancer); conditions: 48 h, SRB
SF-539 = assay: NCI-60 five-dose assay (CNS cancer); conditions: 48 h, SRB
NCI-H322M [2] = assay: NCI-60 five-dose assay (non-small cell lung cancer); conditions: 48 h, SRB
T-47D = assay: NCI-60 five-dose assay (breast cancer); conditions: 48 h, SRB
HOP-62 = assay: NCI-60 one-dose screen (non-small cell lung cancer); conditions: 10 µM single dose, 48 h
Protocol: (§1) The obtained quinolinequinones were submitted to NCI, Bethesda, USA, and, as per standard protocol of NCI, all compounds were evaluated for their antiproliferative activity at single-dose assay (10 µM concentration in DMSO) on a panel of 60 cancer cell lines derived from leukemia, non-small-cell lung, colon, CNS, melanoma, ovarian, renal, prostate, and breast, as per protocol. Tested compounds were added to the microtiter culture plates followed by incubation for 48 h at 37 °C. Sulforhodamine B (SRB), a protein-binding dye, is used for endpoint determination. The percent of the growth of the treated cells was determined in comparison to the untreated control cells and the results of each tested compound were reported. Data from one-dose experiments pertain to the percentage growth at 10 μM [16, 17, 18].

NCI-H23 = assay: as above; conditions: 10 µM single dose, 48 h
Protocol: as §1

NCI-H322M [3] = assay: as above; conditions: 10 µM single dose
Protocol: as §1

HOP-92 = assay: as above; conditions: 10 µM single dose, 48 h
Protocol: as §1

NCI-H226 = assay: as above; conditions: 10 µM single dose
Protocol: as §1

NCI-H460 [4] = assay: as above; conditions: 10 µM single dose
Protocol: as §1

NCI-H522 = assay: as above; conditions: 10 µM single dose, 48 h
Protocol: as §1

EKVX [5] = assay: as above; conditions: 10 µM single dose, 48 h
Protocol: as §1

A549/ATCC = assay: as above; conditions: 10 µM single dose, 48 h
Protocol: as §1

MALME-3M = assay: NCI-60 five-dose assay (melanoma); conditions: 48 h, SRB
A498 = assay: NCI-60 five-dose assay (renal cancer); conditions: 48 h, SRB
SK-OV-3 = assay: NCI-60 five-dose assay (ovarian cancer); conditions: 48 h, SRB
SK-MEL-28 = assay: NCI-60 five-dose assay (melanoma); conditions: 48 h, SRB
OVCAR-5 = assay: NCI-60 five-dose assay (ovarian cancer); conditions: 48 h, SRB
MOLT-4 [6] = assay: NCI-60 one-dose screen (leukemia); conditions: 10 µM single dose, 48 h
Protocol: as §1

CCRF-CEM = assay: NCI-60 one-dose screen (leukemia); conditions: 10 µM single dose, 48 h
Protocol: as §1

HL-60(TB) = assay: NCI-60 one-dose screen (leukemia); conditions: 10 µM single dose, 48 h
Protocol: as §1

K-562 = assay: NCI-60 one-dose screen (leukemia)
Protocol: as §1

RPMI-8226 = assay: NCI-60 one-dose screen (leukemia); conditions: 10 µM single dose, 48 h
Protocol: as §1

SR = assay: NCI-60 one-dose screen (leukemia); conditions: 10 µM single dose, 48 h
Protocol: as §1

UO-31 = assay: NCI-60 five-dose assay (renal cancer); conditions: 48 h, SRB
HCT-116 = assay: NCI-60 five-dose assay (colon cancer); conditions: 48 h, SRB
SNB-19 = assay: NCI-60 five-dose assay (CNS cancer); conditions: 48 h, SRB
NCI/ADR-RES = assay: NCI-60 five-dose assay (ovarian cancer); conditions: 48 h, SRB
ACHN = assay: NCI-60 five-dose assay (renal cancer); conditions: 48 h, SRB
NCI-H460 [7] = assay: NCI-60 five-dose assay (non-small cell lung cancer); conditions: 48 h, SRB
DU-145 = assay: NCI-60 one-dose screen (prostate cancer); conditions: 10 µM single dose, 48 h
Protocol: as §1

PC-3 [8] = assay: NCI-60 one-dose screen (prostate cancer); conditions: 10 µM single dose
Protocol: as §1

SW-620 = assay: NCI-60 five-dose assay (colon cancer); conditions: 48 h, SRB
MOLT-4 [9] = assay: NCI-60 five-dose assay (leukemia); conditions: 48 h, SRB
PC-3 [10] = assay: NCI-60 five-dose assay (prostate cancer); conditions: 48 h, SRB
UACC-257 = assay: NCI-60 five-dose assay (melanoma); conditions: 48 h, SRB
[11] = Homo sapiens, read-out: LC50 (the source's name)

SMILES: CCOc1ccccc1NC1=C(Cl)C(=O)c2nc(C)ccc2C1=O [AQQ2]
- TGI (EKVX [1]): 2.98 µM
- GI50 (EKVX [1]; Homo sapiens): 1.56 µM
- CC50 (EKVX [1]; [11]): 5.7 µM
- TGI (SF-539): 3.09 µM
- GI50 (SF-539; Homo sapiens): 1.67 µM
- LC50 (SF-539; Homo sapiens): 5.71 µM
- TGI (NCI-H322M [2]): 7.91 µM
- GI50 (NCI-H322M [2]; Homo sapiens): 2.22 µM
- CC50 (NCI-H322M [2]; [11]): 29.7 µM
- TGI (T-47D): 3.17 µM
- GI50 (T-47D; Homo sapiens, T47D): 0.467 µM
- CC50 (T-47D; Homo sapiens, T47D, read-out: LC50 (the source's name)): > 100 µM
- GP (growth percentage) (HOP-62): 84.25%
- GP (growth percentage) (NCI-H23): −67.81%
- GP (growth percentage) (NCI-H322M [3]; 48 h): 28.84%
- inhibition at 10 µM (NCI-H322M [3]; Homo sapiens): 71.2%
- GP (growth percentage) (HOP-92): −89.25%
- GP (growth percentage) (NCI-H226; 48 h): 17.62%
- inhibition at 10 µM (NCI-H226; Homo sapiens): 82.4%
- GP (growth percentage) (NCI-H460 [4]; 48 h): 12.07%
- inhibition at 10 µM (NCI-H460 [4]; Homo sapiens): 87.9%
- GP (growth percentage) (NCI-H522): −43.48%
- GP (growth percentage) (EKVX [5]): −2.24%
- GP (growth percentage) (A549/ATCC): 59.11%
- TGI (MALME-3M): 2.77 µM
- GI50 (MALME-3M; Homo sapiens): 1.36 µM
- LC50 (MALME-3M; Homo sapiens): 5.64 µM
- TGI (A498): 10.8 µM
- GI50 (A498; Homo sapiens): 2.65 µM
- LC50 (A498; Homo sapiens): 34.8 µM
- TGI (SK-OV-3): 27.1 µM
- GI50 (SK-OV-3; Homo sapiens): 13.5 µM
- LC50 (50% net cell kill) (SK-OV-3; Homo sapiens): 54.2 µM
- TGI (SK-MEL-28): 3.14 µM
- GI50 (SK-MEL-28; Homo sapiens): 1.71 µM
- LC50 (SK-MEL-28; Homo sapiens): 5.79 µM
- TGI (OVCAR-5): 3.33 µM
- GI50 (OVCAR-5; Homo sapiens): 1.84 µM
- LC50 (lethal concentration 50%) (OVCAR-5; Homo sapiens): 6.03 µM
- GP (growth percentage) (MOLT-4 [6]): −24.89%
- GP (growth percentage) (CCRF-CEM): −6.33%
- GP (growth percentage) (HL-60(TB)): −36.75%
- GP (growth percentage) (K-562; 10 µM single dose, 48 h): 1.26%
- inhibition at 10 µM (K-562; Homo sapiens, K562, 10 µM single dose): 98.7%
- GP (growth percentage) (RPMI-8226): −35.12%
- GP (growth percentage) (SR): −12.75%
- TGI (UO-31): 2.71 µM
- GI50 (UO-31; Homo sapiens): 1.4 µM
- LC50 (lethal concentration 50%) (UO-31; Homo sapiens): 5.23 µM
- TGI (HCT-116): 2.31 µM
- GI50 (HCT-116; Homo sapiens): 1.05 µM
- LC50 (HCT-116; Homo sapiens): 5.05 µM
- TGI (SNB-19): 3.97 µM
- GI50 (SNB-19; Homo sapiens): 1.8 µM
- CC50 (SNB-19; [11]): 8.73 µM
- TGI (NCI/ADR-RES): 5.09 µM
- GI50 (NCI/ADR-RES; Homo sapiens): 1.89 µM
- CC50 (NCI/ADR-RES; [11]): > 100 µM
- TGI (ACHN): 2.69 µM
- GI50 (ACHN; Homo sapiens): 1.35 µM
- LC50 (ACHN; Homo sapiens): 5.35 µM
- TGI (NCI-H460 [7]): 11.4 µM
- GI50 (NCI-H460 [7]; Homo sapiens): 3.02 µM
- CC50 (NCI-H460 [7]; [11]): 45.4 µM
- GP (growth percentage) (DU-145): −85.02%
- GP (growth percentage) (PC-3 [8]; 48 h): 4.34%
- inhibition at 10 µM (PC-3 [8]; Homo sapiens): 95.7%
- TGI (SW-620): 3.21 µM
- GI50 (SW-620; Homo sapiens): 1.6 µM
- LC50 (SW-620; Homo sapiens): 6.41 µM
- TGI (MOLT-4 [9]): 8.09 µM
- GI50 (MOLT-4 [9]; Homo sapiens): 2.03 µM
- LC50 (MOLT-4 [9]; Homo sapiens): > 100 µM
- TGI (PC-3 [10]): 2.77 µM
- GI50 (PC-3 [10]; Homo sapiens): 1.26 µM
- CC50 (PC-3 [10]; [11]): 6.11 µM
- TGI (UACC-257): 2.61 µM
- GI50 (UACC-257; Homo sapiens): 1.28 µM
- LC50 (NCI-60 lethal concentration, 50% cell kill) (UACC-257; Homo sapiens): 5.34 µM

— article PMC11200585, “Prospects for Prostate Cancer Chemotherapy: Cytotoxic Evaluation and Mechanistic Insights of Quinolinequinones with ADME/PK Profile” (Biomedicines, 2024)
